Structures are written as SMILES. Numbered stars: 1 amine (or outer) side, 2 acyl side, 3 side chain; on linkers, the order of the positions; unused ones are H or OH. Bridge positions count the residues as written; N and C are the ends. Square brackets hold non-standard residues; d marks the D form. Peptide text beside a SMILES is read from it. I, II: the chains in the order shown. Phe(2,4-Cl2) = N[C@@H](Cc1ccc(Cl)cc1Cl)C(=O)O; 1Nal = N[C@@H](Cc1cccc2ccccc12)C(=O)O; 2Nal = N[C@@H](Cc1ccc2ccccc2c1)C(=O)O; Diglycolyl = O=C(COCC(=O)[*:2])[*:1]; NMeR = CN[C@@H](CCCNC(=N)N)C(=O)O; Tic = O=C(O)[C@@H]1Cc2ccccc2CN1; β3hE = N[C@@H](CCC(=O)O)CC(=O)O; Pen = CC(C)(S)[C@H](N)C(=O)O

The target in data set [1] is T1, α4β1 (Homo sapiens, UniProt P05556+P13612, DEL729-798).
T1 construct: purchased R&D Systems 5668-A4
T1 sequence (P13612 34-977 limits assumed, stated change not applied): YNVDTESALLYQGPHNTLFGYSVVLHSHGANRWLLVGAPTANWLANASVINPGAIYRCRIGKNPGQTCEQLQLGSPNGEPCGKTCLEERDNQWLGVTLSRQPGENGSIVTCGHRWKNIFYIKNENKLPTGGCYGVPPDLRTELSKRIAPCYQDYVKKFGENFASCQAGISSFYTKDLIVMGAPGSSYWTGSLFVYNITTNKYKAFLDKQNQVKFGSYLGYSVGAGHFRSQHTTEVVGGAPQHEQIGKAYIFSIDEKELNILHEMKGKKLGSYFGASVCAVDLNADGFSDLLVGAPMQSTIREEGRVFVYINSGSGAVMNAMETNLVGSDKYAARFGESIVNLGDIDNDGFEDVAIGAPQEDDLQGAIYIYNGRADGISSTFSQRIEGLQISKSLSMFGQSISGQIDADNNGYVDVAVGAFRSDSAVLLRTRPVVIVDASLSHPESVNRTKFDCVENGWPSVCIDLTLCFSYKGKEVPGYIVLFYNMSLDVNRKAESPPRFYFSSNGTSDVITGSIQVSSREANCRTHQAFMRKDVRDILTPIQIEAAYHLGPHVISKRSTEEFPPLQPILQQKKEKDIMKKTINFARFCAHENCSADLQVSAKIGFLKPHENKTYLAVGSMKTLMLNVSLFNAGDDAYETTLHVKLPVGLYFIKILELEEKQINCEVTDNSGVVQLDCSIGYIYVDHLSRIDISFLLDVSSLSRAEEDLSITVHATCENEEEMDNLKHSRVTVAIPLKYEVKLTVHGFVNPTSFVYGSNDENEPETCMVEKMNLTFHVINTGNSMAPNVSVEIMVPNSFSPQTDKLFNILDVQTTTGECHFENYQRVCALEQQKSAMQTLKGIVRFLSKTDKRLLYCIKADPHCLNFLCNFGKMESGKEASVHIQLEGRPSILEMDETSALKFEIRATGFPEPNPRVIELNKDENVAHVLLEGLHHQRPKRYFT
T1 sequence (P05556 21-728 limits assumed, stated change not applied): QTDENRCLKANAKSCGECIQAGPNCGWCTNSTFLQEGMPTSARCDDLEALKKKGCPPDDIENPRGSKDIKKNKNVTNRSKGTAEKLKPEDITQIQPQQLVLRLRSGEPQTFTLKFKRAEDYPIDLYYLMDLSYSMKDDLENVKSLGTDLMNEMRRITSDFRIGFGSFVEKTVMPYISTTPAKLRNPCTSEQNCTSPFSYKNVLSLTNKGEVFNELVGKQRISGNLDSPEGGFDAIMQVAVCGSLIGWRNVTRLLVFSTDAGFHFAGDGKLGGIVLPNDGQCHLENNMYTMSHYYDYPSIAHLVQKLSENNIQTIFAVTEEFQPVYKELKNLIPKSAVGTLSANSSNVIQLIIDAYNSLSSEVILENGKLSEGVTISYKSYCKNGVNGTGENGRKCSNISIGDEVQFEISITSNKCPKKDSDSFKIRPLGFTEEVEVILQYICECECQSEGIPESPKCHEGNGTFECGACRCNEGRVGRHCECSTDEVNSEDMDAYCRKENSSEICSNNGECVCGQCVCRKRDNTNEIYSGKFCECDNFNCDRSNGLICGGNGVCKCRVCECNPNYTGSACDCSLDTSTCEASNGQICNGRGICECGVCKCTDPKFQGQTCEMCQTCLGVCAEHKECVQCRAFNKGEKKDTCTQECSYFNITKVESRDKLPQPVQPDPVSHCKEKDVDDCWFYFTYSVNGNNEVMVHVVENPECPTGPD
In words: α4β1-VCAM Competition ELISA. It counts as binding. Particulars: Table 3-B, Selectivity (α4β1); range classes; read-out: α4β1 ELISA IC50. The method, then:
A Nunc MaxiSorp plate was coated with rh VCAM-1/CD106 Fc chimera (R&D #862-VC) at 400 ng/well in 50 ul per well in 1×PBS and incubated overnight at 4° C. The solution was removed by shaking and then blocked with 250 ul of 1% BSA in 1×PBS per well. The wells were then incubated at room temperature for 1 hr with shaking. Each well was then washed once with wash buffer (50 mM Tris-HCl pH7.6, 100 mM NaCL, 1 mM MnCl2 or MgCl2, 0.05% Tween-20). 25 ul of serial dilutions of peptides starting at 200 μM in assay buffer (Assay buffer: 50 mM Tris-HCl pH7.6, 100 mM NaCl, 1 mM MnCl2 or MgCl2, 0.05% Tween-20) was added to each well. Additionally, 25 ul of α4β1 (R&D Systems #5668-A4) was added to each well at a fixed concentration of 120 nM. The final peptide and α4β1 concentrations were 100 μM and 60 nM, respectively. The plates were then incubated at 37° C. for 2 hr. The solution was then removed by shaking, and each well was washed three times with wash buffer. 50 ul of 9F10 antibody at 4 ug/ml (purified mouse anti-human CD49d, BD Bioscience Cat#555502) was then added to each well, and the plate was incubated at room temperature for 1 hr with shaking. The solution was again removed by shaking, and each well was washed three times with wash buffer. 50 ul of peroxidase-conjugated AffiniPure Goat anti-mouse IgG (Jackson immune research cat #115-035-003) diluted in 1:5000 in assay buffer was added to each well. The plate was incubated at room temperature for 30 min with shaking. Each well was then washed 3 times with wash buffer. 100 ul of TMB was then added to each well and closely observe during developing time. The reaction was stepped with 2N H2SO4 and absorbance was read at 450 nm.
For orientation: In an ELISA, binding on a coated surface is turned into a signal by an enzyme label.

For data set [2], the target named is T2, α4β7 (Mus musculus, UniProt P26011+Q00651).
T2 construct: host or cells: TK1 mouse T cells
Put plainly: α4β7 Cell Adhesion Assay (Mouse), TK1 cells. It counts as cell-based. Conditions: Table 3-B, Potency (α4β7); range classes; read-out: α4β7 cell(MU) IC50. The procedure:
TK1 cells (ATCC # ATCC-CRL-2396) were cultured in RPMI 1640 with 2 mM L-glutamine adjusted to contain 1.5 g/L sodium bicarbonate, 4.5 g/L glucose, 10 mM HEPES, and 1.0 mM sodium pyruvate (ATCC#30-2001) and supplemented with 0.1 mM non-essential amino acids, (ATCC #30-2116) 0.05 mM 2-mercaptoethanol (Invitrogen #21985) and 10% serum (Fetal Bovine Serum, Invitrogen #16140-071), and Penicillin-Streptomycin (Invitrogen #15140-122) at 100 units of penicillin and 100 μg of streptomycin per ml. The cells were washed two times in DMEM medium (ATCC #30-2002) supplemented with 0.1% BSA, 10 mM HEPES pH 7 and 1 mM MnCl2. The cells were re-suspended in supplemented DMEM medium at a density of 4×10^6 cells/ml.
A Nunc MaxiSorp plate was coated with Recombinant human MAdCAM-1 Fc Chimera (R&D #6065-MC) at 200 ng per well in 100 μl per well in 1×PBS and incubated at 4° C. overnight. The solution was then removed by shaking, blocked with 250 ul per well PBS containing 1% BSA, and incubated at 37° C. for 1 hr. The solution was removed by shaking. DATK 32 (anti-mouse α4β7) and peptides were diluted by serial dilution in a final volume of 50 ul per well (2× concentration). To each well, 50 ul of cells (200,000 cells) are added and the plate is incubated at 37° C., 5% CO2 for 30-45 min to allow cell adhesion. The plate was manually washed three times with supplemented DMEM, 100 ul per wash. After the final wash, 100 ul/well of supplemented DMEM and […] of MTT reagent (ATTC cat#30-1010K) was added to each well. Wells were incubated at 37° C. with 5% CO2 for 2-3 hrs until purple precipitate was visible. 100 μl of Detergent Reagent (ATTC cat#30-1010K) was added to each well. The plate was then wrapped with Para film to prevent evaporation, and left overnight at room temperature in the dark. The plate was shaken for 5 min and the absorbance at 570 nm was measured. To calculate the dose response, the absorbance value of control wells not containing cells was subtracted from each test well.

Data set [3] has as its target α4β7 (Homo sapiens, UniProt P13612+P26010). In words: α4β7-MAdCAM Cell Adhesion Assay (RPMI 8866 human cells). It counts as cell-based. The arrangement: host or cells: RPMI 8866 human B lymphoblastoid cells. Conditions: Table 3-B, Potency (α4β7); range classes; read-out: α4β7 cell (Hu) IC50. Summed up:
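Adhesion read-out: MTT absorbance at 570 nm minus no-cell wells, after three washes. Plates coated with rh MAdCAM-1/Fc received peptide dilutions plus 200,000 RPMI 8866 cells in Mn2+ (1 mM)-supplemented DMEM, 0.1% BSA, HEPES pH 7, incubated 30-45 min, 37 °C.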

Data set [4] concerns the target T3, rh integrin α4β7 (Homo sapiens, UniProt P13612+P26010).
T3 construct: purchased R&D Systems 5397-A30
Put plainly: α4β7-MAdCAM Competition ELISA. It counts as binding. Conditions: Table 3-B, Potency (α4β7); range classes; read-out: α4β7 ELISA IC50. Summed up:
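Competition read-out was A450 after anti-human IgG1-HRP and TMB detection of bound recombinant human MAdCAM-1 (10 nM final). Peptides were serially diluted 3-fold from a final 10 μM and equilibrated 1 h at room temperature on nickel-captured α4β7 (800 ng/well). The buffer was Tris pH 7.6 with 1 mM Mn2+ or Mg2+.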

Data set [5] in a line: Simulated Intestinal Fluid (SIF) Stability Assay. The data set is classed as in vitro ADME, porcine. Particulars: > means experiment was stopped at that time and half life was not reached; for half-life at 22 μM: pig, simulated intestinal fluid (SIF) with 1% porcine pancreatin, pH 6.5, Table 3-B, read-out: Stabilty SIF t1/2. In outline: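 Intestinal stability: percent peptide remaining over time, by LC-MS/MS peak-area ratio to internal standard, fitted to first-order decay for half-life. Conditions: 22 μM peptide, 1% pancreatin in pH 6.5 blank FASSIF, 37 °C.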

Chain of α4β7 (Homo sapiens, UniProt P13612+P26010) (P13612 34-1032): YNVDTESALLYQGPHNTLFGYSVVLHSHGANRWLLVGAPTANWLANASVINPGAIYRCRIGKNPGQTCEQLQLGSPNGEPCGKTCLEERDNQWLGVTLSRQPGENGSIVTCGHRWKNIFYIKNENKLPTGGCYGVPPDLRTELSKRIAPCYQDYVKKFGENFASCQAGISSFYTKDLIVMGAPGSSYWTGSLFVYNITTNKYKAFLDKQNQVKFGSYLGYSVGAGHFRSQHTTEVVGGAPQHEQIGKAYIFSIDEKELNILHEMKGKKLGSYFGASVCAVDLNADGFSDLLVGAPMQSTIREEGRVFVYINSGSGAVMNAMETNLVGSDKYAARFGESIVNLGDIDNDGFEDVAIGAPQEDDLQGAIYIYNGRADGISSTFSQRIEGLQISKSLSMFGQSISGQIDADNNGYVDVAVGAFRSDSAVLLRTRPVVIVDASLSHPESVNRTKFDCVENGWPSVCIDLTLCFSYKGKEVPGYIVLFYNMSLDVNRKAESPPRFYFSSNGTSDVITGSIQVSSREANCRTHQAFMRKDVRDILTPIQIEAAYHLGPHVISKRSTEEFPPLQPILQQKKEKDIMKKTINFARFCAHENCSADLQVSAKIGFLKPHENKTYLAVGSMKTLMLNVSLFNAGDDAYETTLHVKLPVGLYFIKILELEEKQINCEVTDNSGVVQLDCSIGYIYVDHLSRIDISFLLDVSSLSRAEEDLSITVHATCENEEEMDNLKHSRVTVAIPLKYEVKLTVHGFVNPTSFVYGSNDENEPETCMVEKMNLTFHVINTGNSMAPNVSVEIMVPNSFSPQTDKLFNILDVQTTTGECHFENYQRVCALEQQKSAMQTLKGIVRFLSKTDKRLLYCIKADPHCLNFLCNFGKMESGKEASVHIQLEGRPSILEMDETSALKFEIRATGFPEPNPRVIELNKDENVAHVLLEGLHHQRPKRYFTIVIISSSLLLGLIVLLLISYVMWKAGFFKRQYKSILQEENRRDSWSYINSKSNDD
Chain of α4β7 (Homo sapiens, UniProt P13612+P26010) (P26010 20-798): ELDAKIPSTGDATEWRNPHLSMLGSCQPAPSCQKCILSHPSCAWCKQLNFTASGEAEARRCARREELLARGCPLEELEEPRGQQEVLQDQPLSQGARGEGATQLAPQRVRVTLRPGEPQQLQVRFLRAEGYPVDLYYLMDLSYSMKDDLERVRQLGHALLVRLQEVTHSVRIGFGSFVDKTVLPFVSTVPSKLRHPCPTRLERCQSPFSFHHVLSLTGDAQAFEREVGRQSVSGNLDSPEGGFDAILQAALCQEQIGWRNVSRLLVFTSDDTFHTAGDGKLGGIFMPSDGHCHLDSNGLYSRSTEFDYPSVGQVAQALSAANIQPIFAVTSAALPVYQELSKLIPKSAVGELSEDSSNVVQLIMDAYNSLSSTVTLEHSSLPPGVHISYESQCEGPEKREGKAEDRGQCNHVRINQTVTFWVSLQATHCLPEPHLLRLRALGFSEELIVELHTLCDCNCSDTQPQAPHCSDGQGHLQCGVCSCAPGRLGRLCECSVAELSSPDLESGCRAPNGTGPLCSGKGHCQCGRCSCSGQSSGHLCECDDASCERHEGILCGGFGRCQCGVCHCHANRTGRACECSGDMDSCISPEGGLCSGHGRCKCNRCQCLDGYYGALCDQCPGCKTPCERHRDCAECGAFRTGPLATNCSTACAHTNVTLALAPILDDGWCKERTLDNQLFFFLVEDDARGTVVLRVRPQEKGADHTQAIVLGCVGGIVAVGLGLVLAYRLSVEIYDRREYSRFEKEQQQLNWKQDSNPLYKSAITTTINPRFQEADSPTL
T3 sequence (P13612 34-977 limits assumed): as the sequence (P13612 34-977 limits assumed, stated change not applied) above
T3 sequence (P26010 20-723 limits assumed): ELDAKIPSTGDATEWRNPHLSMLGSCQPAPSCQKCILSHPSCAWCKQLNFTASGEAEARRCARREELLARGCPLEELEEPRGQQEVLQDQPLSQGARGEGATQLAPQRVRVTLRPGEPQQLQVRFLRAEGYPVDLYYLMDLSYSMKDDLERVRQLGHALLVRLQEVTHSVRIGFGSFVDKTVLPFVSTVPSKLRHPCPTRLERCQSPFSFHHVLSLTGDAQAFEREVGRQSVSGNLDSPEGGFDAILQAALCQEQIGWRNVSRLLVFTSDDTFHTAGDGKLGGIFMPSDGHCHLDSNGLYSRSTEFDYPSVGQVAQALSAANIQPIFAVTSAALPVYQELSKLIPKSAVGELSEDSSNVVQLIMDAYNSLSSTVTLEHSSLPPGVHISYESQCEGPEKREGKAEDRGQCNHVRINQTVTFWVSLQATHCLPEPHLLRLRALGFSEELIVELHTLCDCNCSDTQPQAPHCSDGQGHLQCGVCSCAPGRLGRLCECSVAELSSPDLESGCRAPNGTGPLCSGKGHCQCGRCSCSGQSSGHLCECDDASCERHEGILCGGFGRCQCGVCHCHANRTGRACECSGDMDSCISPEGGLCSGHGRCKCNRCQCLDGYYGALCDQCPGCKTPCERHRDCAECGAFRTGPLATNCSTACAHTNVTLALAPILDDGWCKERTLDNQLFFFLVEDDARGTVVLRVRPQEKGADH

In the case of `CC(=O)N[C@@H]1C(=O)N(C)[C@@H](CCCNC(=N)N)C(=O)N[C@@H](CO)C(=O)N[C@@H](CC(=O)O)C(=O)N[C@@H]([C@@H](C)O)C(=O)N[C@@H](CC(C)C)C(=O)N[C@H](C(=O)N2Cc3ccccc3C[C@H]2C(=O)N[C@@H](CCC(=O)O)CC(N)=O)C(C)(C)SSC1(C)C` [compound 154] (Ac-[Pen][NMeR]SDTL[Pen][Tic][β3hE]-NH2; disulfide 1-7), the IC50 in data set [1] was 1000 to 10000 nM; in data set [2], 1000 to 10000 nM; in data set [3], 100 to 500 nM.
As to `COC(=O)CC[C@H](NC(=O)[C@H](Cc1c[nH]c2ccccc12)NC(=O)[C@H]1NC(=O)[C@H](CC(C)C)NC(=O)[C@H]([C@@H](C)O)NC(=O)[C@H](CC(=O)O)NC(=O)[C@H](CO)NC(=O)[C@H](CCCNC(=N)N)N(C)C(=O)[C@@H](NC(C)=O)C(C)(C)SSC1(C)C)C(=O)N[C@H](CCCCNC(=O)COCC(=O)NCCCC[C@@H](NC(=O)[C@H](CCC(=O)OC)NC(=O)[C@H](Cc1c[nH]c2ccccc12)NC(=O)[C@H]1NC(=O)[C@H](CC(C)C)NC(=O)[C@H]([C@@H](C)O)NC(=O)[C@H](CC(=O)O)NC(=O)[C@H](CO)NC(=O)[C@H](CCCNC(=N)N)N(C)C(=O)[C@@H](NC(C)=O)C(C)(C)SSC1(C)C)C(N)=O)C(N)=O` [compound 86] (I: Ac-[Pen][NMeR]SDTL[Pen]WE(OMe)[dK]-NH2 / II: Ac-[Pen][NMeR]SDTL[Pen]WE(OMe)[dK]-NH2; disulfide I:1-I:7, II:1-II:7; linker I:10-II:10 via Diglycolyl), the IC50 in data set [2] and in data set [3] was below 10 nM each time.
Take `CC(=O)N[C@@H]1C(=O)N(C)[C@@H](CCCNC(=N)N)C(=O)N[C@@H](CO)C(=O)N[C@@H](CC(=O)O)C(=O)N[C@@H]([C@@H](C)O)C(=O)N[C@@H](CC(C)C)C(=O)N[C@H](C(=O)N[C@@H](Cc2ccc3ccccc3c2)C(=O)N[C@@H](CCC(=O)O)CC(N)=O)C(C)(C)SSC1(C)C` [compound 155] (Ac-[Pen][NMeR]SDTL[Pen][2Nal][β3hE]-NH2; disulfide 1-7): the results for the half-maximal inhibitory concentration (IC50) in data set [1], in data set [2] and in data set [3] were 1000 to 10000 nM, 25 to 50 nM and 25 to 50 nM, respectively.
On to `CC(=O)N[C@@H]1C(=O)N(C)[C@@H](CCCNC(=N)N)C(=O)N[C@@H](CO)C(=O)N[C@@H](CC(=O)O)C(=O)N[C@@H]([C@@H](C)O)C(=O)N[C@@H](CC(C)C)C(=O)N[C@H](C(=O)N[C@@H](Cc2cccc3ccccc23)C(=O)N[C@H](CCC(=O)O)C(=O)N[C@H](CCCCNC(=O)COCC(=O)NCCCC[C@@H](NC(=O)[C@@H](CCC(=O)O)NC(=O)[C@H](Cc2cccc3ccccc23)NC(=O)[C@H]2NC(=O)[C@H](CC(C)C)NC(=O)[C@H]([C@@H](C)O)NC(=O)[C@H](CC(=O)O)NC(=O)[C@H](CO)NC(=O)[C@H](CCCNC(=N)N)N(C)C(=O)[C@@H](NC(C)=O)C(C)(C)SSC2(C)C)C(N)=O)C(N)=O)C(C)(C)SSC1(C)C` [compound 32] (I: Ac-[Pen][NMeR]SDTL[Pen][1Nal][dE][dK]-NH2 / II: Ac-[Pen][NMeR]SDTL[Pen][1Nal][dE][dK]-NH2; disulfide I:1-I:7, II:1-II:7; linker I:10-II:10 via Diglycolyl), for which the IC50 in data set [4] is below 10 nM; in data set [1], 100 to 500 nM; in data set [3], 10 to 25 nM. For the same compound, the half-life at 22 μM in data set [5] was above 180 min.
Take `CC(=O)N[C@@H]1C(=O)N(C)[C@@H](CCCNC(=N)N)C(=O)N[C@@H](CO)C(=O)N[C@@H](CC(=O)O)C(=O)N[C@@H]([C@@H](C)O)C(=O)N[C@@H](CC(C)C)C(=O)N[C@H](C(=O)N[C@@H](Cc2ccc(Cl)cc2Cl)C(=O)N[C@@H](CCC(=O)O)C(=O)N[C@H](CCCCNC(=O)COCC(=O)NCCCC[C@@H](NC(=O)[C@H](CCC(=O)O)NC(=O)[C@H](Cc2ccc(Cl)cc2Cl)NC(=O)[C@H]2NC(=O)[C@H](CC(C)C)NC(=O)[C@H]([C@@H](C)O)NC(=O)[C@H](CC(=O)O)NC(=O)[C@H](CO)NC(=O)[C@H](CCCNC(=N)N)N(C)C(=O)[C@@H](NC(C)=O)C(C)(C)SSC2(C)C)C(N)=O)C(N)=O)C(C)(C)SSC1(C)C` [compound 42] (I: Ac-[Pen][NMeR]SDTL[Pen][Phe(2,4-Cl2)]E[dK]-NH2 / II: Ac-[Pen][NMeR]SDTL[Pen][Phe(2,4-Cl2)]E[dK]-NH2; disulfide I:1-I:7, II:1-II:7; linker I:10-II:10 via Diglycolyl): the IC50 is below 10 nM in data set [4], 100 to 500 nM in data set [1] and below 10 nM in data set [3]. Further, in data set [5] (Table 3-B), the “Stabilty SIF t1/2” value is on record as 49 min. For the same compound, the half-life at 22 μM in data set [5] is 51 min.
For `CC(=O)N[C@@H]1C(=O)N(C)[C@@H](CCCNC(=N)N)C(=O)N[C@@H](CO)C(=O)N[C@@H](CC(=O)O)C(=O)N[C@@H]([C@@H](C)O)C(=O)N[C@@H](CC(C)C)C(=O)N[C@H](C(=O)N[C@@H](Cc2cccc3ccccc23)C(=O)N[C@@H](CCC(=O)O)C(=O)N[C@H](CCCCNC(=O)COCC(=O)NCCCC[C@@H](NC(=O)[C@H](CCC(=O)O)NC(=O)[C@H](Cc2cccc3ccccc23)NC(=O)[C@H]2NC(=O)[C@H](CC(C)C)NC(=O)[C@H]([C@@H](C)O)NC(=O)[C@H](CC(=O)O)NC(=O)[C@H](CO)NC(=O)[C@H](CCCNC(=N)N)N(C)C(=O)[C@@H](NC(C)=O)C(C)(C)SSC2(C)C)C(N)=O)C(N)=O)C(C)(C)SSC1(C)C` [compound 24] (I: Ac-[Pen][NMeR]SDTL[Pen][1Nal]E[dK]-NH2 / II: Ac-[Pen][NMeR]SDTL[Pen][1Nal]E[dK]-NH2; disulfide I:1-I:7, II:1-II:7; linker I:10-II:10 via Diglycolyl), the figures for the IC50 in data set [4], in data set [1] and in data set [3] were below 10 nM, 100 to 500 nM and below 10 nM, respectively. Moreover, the half-life at 22 μM in data set [5] was 56 min.

The IC50 is the concentration at which inhibition is half-maximal.

These data come from patent US9809623B2, “α4β7 peptide monomer and dimer antagonists” (Protagonist Therapeutics, Inc., priority 2014, dated 2017).
